Assay results taken from patent US12637468B2, “Substituted [1,2,4]triazolo[4,3-b]pyridazines as GABAA receptor modulators” (SHANGHAI SIMR BIOTECHNOLOGY CO., LTD., priority 2019, dated 2026).
Values after ≈ are worked out from the molar mass of the structure shown.

Legend:
[1] = Rat liver microsome stability (RLM) experiment; assay type: in vitro ADME; settings: rat liver microsomal stability
Procedure: Effect embodiment 3 Rat liver microsome stability (RLM) experiment
Rat liver microsomes (Xenotech, item No. R1000, lot No. 1310030), 100 mM potassium phosphate buffer solution (pH 7.4), 10 mM magnesium chloride.
Compound preparation: 5 μL of compound DMSO mother liquor (10 mM) was added to 495 μL of methanol to obtain an intermediate solution with a compound concentration of 100 μM. Then 50 μL of the intermediate solution was taken and dissolved in 450 μL of potassium phosphate buffer solution to obtain a test solution with a final concentration of 10 μM.
NADPH regeneration system (concentration of isocitrate dehydrogenase 1 unit/mL).
Liver microsomes (final concentration 0.5 mg protein/mL).
Reaction termination solution: cold acetonitrile containing 100 ng/mL Tolbutamide and 100 ng/mL Labetalol as an internal standard.
• (1) Preparation of buffer solution: • Buffer solution A: 1.0 L of 0.1 M potassium phosphate buffer solution containing 1.0 mM EDTA • Buffer solution B: 1.0 L of 0.1 M dipotassium phosphate buffer solution containing 1.0 mM EDTA • Buffer solution C: 0.1 M potassium phosphate buffer, 1.0 mM EDTA, pH 7.4, titrated with 700 mL of buffer solution B and buffer solution A, monitored by pH meter. • (2) Preparation of reference substance (ketanserin) and concentration of administration solution of the test substance:
[…]: […] 10 mM DMSO reference substance stock solution and test substance stock solution were added to 190 μL of ACN, respectively. 1.5 μM administration solution (containing 0.75 mg/mL liver microsomes): […] administration solution and 18.75 μL of 20 mg/mL liver microsomes were added to 479.75 μL of buffer C on a wet ice. • (3) NADPH was added to buffer solution C to obtain a NADPH stock solution (6 mM). • (4) 30 μL of 1.5 μM administration solution (containing 0.75 mg/mL of liver microsomes) was taken on the wet ice and added to the wells of the test plate at different time points (0-, 5-, 15-, 30-, 45-min), respectively. • (5) Firstly, 135 μL of ACN containing IS was added to the wells of a 0 min test plate, and then 15 μL of the NADPH stock solution (6 mM) was added. • (6) The test plate at other time points and the NADPH stock solution were pre-heated in a 37° C. water bath for 5 minutes. • (7) 15 μL of the NADPH stock solution (6 mM) was taken and added to a pre-incubated test plate, and the reaction was started and timed. • (8) At 5 min, 15 min, 30 min and 45 min, 135 μL of CAN containing IS was added to the corresponding test plate respectively, and the test was completed. • (9) Test plates were shaken with a shaker (IKA, MTS 2/4) for 10 min (600 rpm/min) and then centrifuged for 15 min (Thermo Multifuge×3R, 5594 g). • (10) 50 μL of supernatant from each well was added to a 96-well sample plate containing 50 μL of ultrapure water (Millipore, ZMQS50F01), and the samples were analyzed by LC/MS.

[2] = Pharmacokinetic experiment on rats: brain entry ratio (brain tissue/plasma concentration ratio); assay type: in vivo; settings: rat, male SD rats, po 10 mg/kg
Procedure: The drug concentration ratio of plasma and brain tissue in the pharmacokinetic experiment on rats was used to evaluate the entry of compounds into brain. All rats fasted overnight before administration; the test compounds were dissolved and administered orally (po) to male SD rats, with 3 rats in each group. After administration of the test compounds, blood was collected by jugular vein puncture at 0.5 hours with about 0.25 mL per sample. The whole brain was taken at the same time. The plasma and brain tissue drug concentration were determined by LC-MS/MS method, and the pharmacokinetic parameters were calculated by Phoenix WinNonlin7.0. The dosage was 10 mg/kg, and the vehicle was 5% CMC-Na aqueous solution.

[3] = biological target: T1, α5-GABAA receptor (Homo sapiens, UniProt P18507+P31644); experiment: Cell-level screening: whole cell patch clamp, inverse agonist efficacy on α5-GABAA receptor expressed in HEK293; assay type: cell-based; settings: drug 100 nM, GABA 0.05 μM, HEK293 expressing α5, β3 and γ2 subunits, clamped at −60 mV; read-out: Compound inverse agonist efficacy %
T1 construct: expressed in transfected cells; host or cells: HEK293, monoclonal stably transfected line
T1 sequence (P31644 32-462): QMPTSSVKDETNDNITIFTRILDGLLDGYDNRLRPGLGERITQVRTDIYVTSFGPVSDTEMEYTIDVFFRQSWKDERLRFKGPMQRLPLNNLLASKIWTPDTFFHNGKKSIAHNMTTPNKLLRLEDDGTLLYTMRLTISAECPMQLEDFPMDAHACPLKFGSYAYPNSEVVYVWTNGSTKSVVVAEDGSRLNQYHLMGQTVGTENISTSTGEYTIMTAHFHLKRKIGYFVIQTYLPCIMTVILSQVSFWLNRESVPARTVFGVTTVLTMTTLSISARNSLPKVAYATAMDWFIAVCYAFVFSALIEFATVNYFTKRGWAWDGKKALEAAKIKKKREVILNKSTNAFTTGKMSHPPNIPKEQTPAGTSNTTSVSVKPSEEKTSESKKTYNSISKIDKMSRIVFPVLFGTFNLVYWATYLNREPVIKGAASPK
T1 sequence (P28472 26-473 partner): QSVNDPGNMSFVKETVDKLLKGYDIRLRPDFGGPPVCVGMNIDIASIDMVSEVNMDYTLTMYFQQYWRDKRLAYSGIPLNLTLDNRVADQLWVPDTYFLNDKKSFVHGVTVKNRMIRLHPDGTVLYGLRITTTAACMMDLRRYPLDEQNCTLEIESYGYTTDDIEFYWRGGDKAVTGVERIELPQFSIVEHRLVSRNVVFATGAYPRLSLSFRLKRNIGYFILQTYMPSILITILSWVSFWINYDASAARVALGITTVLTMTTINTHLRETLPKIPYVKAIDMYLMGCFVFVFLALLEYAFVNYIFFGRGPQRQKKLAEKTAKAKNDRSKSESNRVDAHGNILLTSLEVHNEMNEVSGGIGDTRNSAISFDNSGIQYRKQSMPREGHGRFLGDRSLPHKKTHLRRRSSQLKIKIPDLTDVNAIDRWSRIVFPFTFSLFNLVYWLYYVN
T1 sequence (P18507 40-467 isoform P18507-1 limits assumed): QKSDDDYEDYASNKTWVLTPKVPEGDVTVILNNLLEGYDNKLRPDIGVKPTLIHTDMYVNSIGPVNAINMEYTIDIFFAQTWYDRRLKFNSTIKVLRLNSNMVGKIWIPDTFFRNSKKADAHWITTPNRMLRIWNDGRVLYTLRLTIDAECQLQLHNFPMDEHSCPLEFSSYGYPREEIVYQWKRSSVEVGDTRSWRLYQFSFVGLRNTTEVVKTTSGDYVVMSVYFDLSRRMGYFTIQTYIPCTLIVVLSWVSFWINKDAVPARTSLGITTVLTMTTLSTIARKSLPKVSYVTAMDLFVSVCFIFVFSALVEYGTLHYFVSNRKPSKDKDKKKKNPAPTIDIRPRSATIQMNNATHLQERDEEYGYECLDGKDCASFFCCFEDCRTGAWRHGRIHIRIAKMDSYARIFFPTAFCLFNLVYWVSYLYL
Summary of the method: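 Whole-cell patch clamp at −60 mV on HEK293 stably expressing α5β3γ2, pH 7.4 extracellular/CsCl internal solutions. Current evoked by 0.05 μM GABA, then compound in GABA solution; screening at 100 nM, dose-response 0.3–300 nM. Inverse agonist efficacy as % change of GABA current.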

[4] = Thermodynamic solubility in simulated intestinal fluid (TS in FaSSIF); assay type: physicochemical; settings: thermodynamic from solid, 37° C.
Procedure: Simulated intestinal fluid FaSSIF: 54.76 mg of FaSSIF-V2 (Biorelevant, batch. V2FAS-0619-A, lot. V2FAS01) was weighed and added to 15 mL of a buffer solution. After dissolving, the solution was supplemented to 30 mL, and put at room temperature for 1 hour before use.
(§1) Waters e2695 HPLC high performance liquid chromatography, Mettler XSE105 analytical balance.
(§2) Firstly, a 10 mM stock solution was prepared with DMSO, and was diluted with a diluent (ACN: PB buffer 50:50) into 1 μM-200 μM as a standard solution.
Thermodynamic solubility in intestinal fluid (TS in FaSSIF) was simulated. About 0.3 mg of each sample was weighed and added to 1.5 mL of FaSSIF solution, with two parts in parallel, shaken at 1000 rpm at 37° C. for 4 hours, filtered. 1 mL of an initial filtrate was discarded, and 400 μL of the subsequent filtrate was taken. The filtrate was detected by high performance liquid chromatograph (UV).

[5] = test system: α5-GABAA receptor; settings: cited from earlier work
[6] = Thermodynamic solubility in phosphate buffer solution (TS in PBS); assay type: physicochemical; settings: aqueous buffer, thermodynamic from solid, 50 mM phosphate buffer solution pH 7.4, shaken at room temperature for 24 hours
Procedure: 50 mM phosphate buffer solution pH=7.4:0.39 g of NaH2PO4·2H2O, and 1.4025 g of Na2HPO4 were weighted and placed in an erlenmeyer flask, then 240 mL of water was added thereto. The solid was dissolved and mixed thoroughly, and the pH value was adjusted to 7.4 with 10M NaOH solution, and the resulting solution was transferred to a 250 mL volumetric flask, followed by dilution to scale with water.
as §1, §2
Thermodynamic solubility in phosphate buffer solution (TS in PBS). 1 mg of the sample was weighed, and 1.5 mL of 50 mM phosphate buffer solution (pH 7.4) was added thereto, then the mixture was shaken at room temperature for 24 hours to ensure that the sample was saturated, and filtered. The filtrate was detected with the high performance liquid chromatograph (UV). The compounds of the present disclosure and comparative compounds are tested by this method, and the results are shown in Table 3 below: […]

[7] = Pharmacokinetic experiment on rats: maximum plasma drug concentration (Cmax); assay type: in vivo, rat; settings: male SD rats, po, 10 mg/kg, vehicle 5% CMC-Na aqueous solution
Procedure: In the pharmacokinetic experiment on rats, the maximum plasma drug concentration (Cmax) was used to evaluate the absorption of the compounds in rats. All rats fasted overnight before administration; the test compounds were dissolved and administered orally (po) to male SD rats, with 3 rats in each group. After administration of the test compounds, blood was collected by jugular vein puncture at […] with about 0.25 mL per sample. The plasma drug concentration was determined by LC-MS/MS method, and the pharmacokinetic parameters were calculated by Phoenix WinNonlin7.0. The dosage was 10 mg/kg, and the vehicle was 5% CMC-Na aqueous solution.

[8] = Table 4, 0.5 mg protein/mL, NADPH, 37° C., 0-45 min
[9] = Table 5, compounds of the disclosure and comparative compounds

COc1cc2nnc(-c3cc(C)on3)n2nc1OCc1ccc2c(n1)CCN(C1CCOC1)C2 (centres unmarked) [Embodiment 183]
RLM [1, 8]: 5 µL/min/mg
Kp at 0.5 h ([2]; Table 7): 0.0183
inhibition at 0.1 µM [3]: 55.8%

COc1cc2nnc(-c3cc(C)on3)n2nc1OCc1ccc2nc(C#N)cn2n1 [Embodiment 211, 6-(((7-Methoxy-3-(5-methylisoxazol-3-yl)-[1,2,4]triazolo[4,3-b]pyridazin-6-yl)oxy)methyl)imidazo[1,2-b]pyridazine-2-carbonitrile]
RLM [1, 8]: 5 µL/min/mg
Kp at 0.5 h ([2]; Table 7): 0.018
inhibition at 0.1 µM [3]: 64.7%

COc1cc2nnc(-c3cc(C)on3)n2nc1OCc1ccn2c(C3CCOCC3)nnc2n1 [Embodiment 217]
solubility thermodynamic at 4 h [4]: 57.6 µg/mL (≈ 124 µM)
inhibition at 0.1 µM [3]: 45.6%

COc1cc2nnc(-c3cc(C)on3)n2nc1OCc1ccc2nn(C3CCOC3)cc2n1 (centres unmarked) [Embodiment 231]
solubility thermodynamic at 4 h [4]: 30.6 µg/mL (≈ 68.1 µM)
inhibition at 0.1 µM [3]: 40.3%

COc1cc2nnc(-c3cc(C)on3)n2nc1OCc1ccc2c(cnn2C2CCOC2)n1 (centres unmarked) [Embodiment 232]
solubility thermodynamic at 4 h [4]: 59 µg/mL (≈ 131 µM)
inhibition at 0.1 µM [3]: 53.4%

COc1cc2nnc(-c3cc(C)on3)n2nc1OCc1ccc2nn(C3CN(C)C3)cc2n1 [Embodiment 233]
solubility thermodynamic at 4 h [4]: 245 µg/mL (≈ 547 µM)
inhibition at 0.1 µM [3]: 41.3%

COc1cc2nnc(-c3cc(C)on3)n2nc1OCc1ccc2c(cnn2C2CN(C)C2)n1 [Embodiment 234]
solubility thermodynamic at 4 h [4]: 266 µg/mL (≈ 594 µM)
inhibition at 0.1 µM [3]: 53.2%

COCCn1ncc2nc(COc3nn4c(-c5cc(C)on5)nnc4cc3OC)ccc21 [Embodiment 241]
solubility thermodynamic at 4 h [4]: 91.8 µg/mL (≈ 210 µM)
inhibition at 0.1 µM [3]: 51.3%

COc1cc2nnc(-c3cc(C)on3)n2nc1OCc1ccc2ncn(C3CCOCC3)c2n1 [Embodiment 247]
solubility thermodynamic at 4 h [4]: 32.7 µg/mL (≈ 70.8 µM)
inhibition at 0.1 µM [3]: 60.4%

CCOC(=O)c1ncn2c1[C@@H]1CCCN1C(=O)c1cc(OC)ccc1-2 [L-655,708]
suppression of the current ([5]; GABA 1 μM, highest concentration of L-655,708): 15%
inhibition of the current induced by low concentrations of GABA ([5]; GABA 5, 50 and 500 nM): dose-dependently inhibited
inhibitory effect on the current induced by GABA ([5]; GABA concentration increased above 1 μM): no inhibitory effect

COc1cc2nnc(-c3cc(C)on3)n2nc1OCc1ccccn1 [drawing 916]
solubility thermodynamic at 24 h [6]: 20.1 µg/mL (≈ 59.4 µM)

Cc1cc(-c2nnc3c4ccccc4c(OCc4ccccn4)nn23)no1 [drawing 917]
solubility thermodynamic at 24 h [6]: 0.3 µg/mL (≈ 0.837 µM)

Cc1cc(-c2nnc3cc(C(C)(C)C)c(OCc4ccccn4)nn23)no1 [drawing 918]
solubility thermodynamic at 24 h [6]: 2.6 µg/mL (≈ 7.13 µM)

CCNC(=O)c1ccc(COc2nn3c(-c4cc(C)on4)nnc3cc2OC)nc1 [drawing 919]
solubility thermodynamic at 24 h [6]: 14.2 µg/mL (≈ 34.7 µM)

CCNC(=O)c1ccc(COc2nn3c(-c4cc(C)on4)nnc3c3ccccc23)nc1 [drawing 920]
solubility thermodynamic at 24 h [6]: 0.8 µg/mL (≈ 1.86 µM)

CCNC(=O)c1ccc(COc2nn3c(-c4cc(C)on4)nnc3cc2C(C)(C)C)nc1 [drawing 921]
solubility thermodynamic at 24 h [6]: 2.5 µg/mL (≈ 5.74 µM)

COc1cc2nnc(-c3cc(C)on3)n2nc1OCc1ccccn1 [drawing 922]
RLM [1, 9]: 0.3 µL/min/mg

Cc1cc(-c2nnc3c4ccccc4c(OCc4ccccn4)nn23)no1 [drawing 923, reference compound]
RLM [1, 9]: 28.2 µL/min/mg

Cc1cc(-c2nnc3cc(C(C)(C)C)c(OCc4ccccn4)nn23)no1 [drawing 924, reference compound]
RLM [1, 9]: 33.6 µL/min/mg

CCNC(=O)c1ccc(COc2nn3c(-c4cc(C)on4)nnc3cc2OC)nc1 [drawing 925]
RLM [1, 9]: 11.4 µL/min/mg

CCNC(=O)c1ccc(COc2nn3c(-c4cc(C)on4)nnc3c3ccccc23)nc1 [drawing 926, reference compound]
RLM [1, 9]: 26 µL/min/mg

CCNC(=O)c1ccc(COc2nn3c(-c4cc(C)on4)nnc3cc2C(C)(C)C)nc1 [drawing 927, reference compound]
RLM [1, 9]: 142.6 µL/min/mg

COc1cc2nnc(-c3cc(C)on3)n2nc1OCc1ccccn1 [drawing 928]
Maximum plasma drug concentration [7]: 1778 ng/mL
Kp at 0.5 h ([2]; Table 6): 0.07

Cc1cc(-c2nnc3c4ccccc4c(OCc4ccccn4)nn23)no1 [drawing 929, reference compound]
Maximum plasma drug concentration [7]: 25.7 ng/ mL ng/mL
Kp at 0.5 h ([2]; Table 6): 1.51

Cc1cc(-c2nnc3cc(C(C)(C)C)c(OCc4ccccn4)nn23)no1 [drawing 930, reference compound]
Maximum plasma drug concentration [7]: 216 ng/mL
Kp at 0.5 h ([2]; Table 6): 0.651
